Common to all, as to type: functional
The subject of one assay is Influenza A virus. Briefly: Antiviral activity against influenza A virus Hong Kong assessed as reduction in viral titers of reproduction at 100 ug/ml.
Assay [1] deals with Human alphaherpesvirus 1. Briefly: Antiviral activity against HSV1 H29S in african green monkey Vero cells assessed as log reduction in viral titers after 1 multiple round of replication at 25 ug/ml after 72 hrs.
Assay [2] has as its system Human alphaherpesvirus 1. Briefly: Antiviral activity against HSV1 H29S in african green monkey Vero cells assessed as log reduction in viral titers after 0.001 multiple round of replication at 25 ug/ml after 72 hrs.
Assay [3] concerns Human alphaherpesvirus 1. Kind of assay: Antiviral activity against HSV1 H29S in african green monkey Vero cells assessed as log reduction in viral titers after 0.001 multiple round of replication at 12.5 ug/ml after 72 hrs.
The subject of assay [4] is Human alphaherpesvirus 1. Briefly: Antiviral activity against HSV1 H29S in african green monkey Vero cells assessed as log reduction in viral titers after 1 multiple round of replication at 12.5 ug/ml after 72 hrs.
Assay [5] relates to Human alphaherpesvirus 1. Kind of assay: Antiviral activity against HSV1 H29S in african green monkey Vero cells assessed as log reduction in viral titers after 0.001 multiple round of replication at 50 ug/ml after 72 hrs.
For assay [6], the system named is Human alphaherpesvirus 1. Briefly: Antiviral activity against HSV1 H29S in african green monkey Vero cells assessed as log reduction in viral titers after 1 multiple round of replication at 6.25 ug/ml after 72 hrs.
For assay [7], the system named is Human alphaherpesvirus 1. Kind of assay: Antiviral activity against HSV1 H29S in african green monkey Vero cells assessed as log reduction in viral titers after 1 multiple round of replication at 50 ug/ml after 72 hrs.
The subject of assay [8] is Human alphaherpesvirus 1. Kind of assay: Antiviral activity against HSV1 H29S in african green monkey Vero cells assessed as reduction in viral DNA synthesis after 1 multiple round of replication at 30 ug/ml after 18 hrs by agarose gel electrophoresis relative to control.
Assay [9] relates to Human alphaherpesvirus 1. Briefly: Antiviral activity against HSV1 H29S in african green monkey Vero cells assessed as log reduction in viral titers after 0.001 multiple round of replication at 6.25 ug/ml after 72 hrs.
The subject of assay [10] is Human alphaherpesvirus 1. Briefly: Antiviral activity against HSV1 H29S in african green monkey Vero cells assessed as reduction in viral DNA synthesis after 1 multiple round of replication at 60 ug/ml after 18 hrs by agarose gel electrophoresis relative to control.

The values below come from ChEMBL document CHEMBL1149068, “Comparison of the anti-herpes simplex virus activities of propolis and 3-methyl-but-2-enyl caffeate” (1994).

The structures appear in SMILES notation.

As to `COc1cc(/C=C/C(=O)OCCC(C)C)ccc1O` [ISOPENTYL FERULATE], the “Selectivity Index” value in the assay on Influenza A virus is recorded as 8.

As to `CC(C)=CCOC(=O)/C=C/c1ccc(O)c(O)c1` (stereo in doubt; form 1) [PRENYL CAFFEATE], the Activity was 2.5 with Human alphaherpesvirus 1 [1]; 2 in the assay with Human alphaherpesvirus 1 [2]; 1.1 in the assay with Human alphaherpesvirus 1 [3]; 1.5 with Human alphaherpesvirus 1 [4]; 3.1 in the assay with Human alphaherpesvirus 1 [5]; 1 in the assay with Human alphaherpesvirus 1 [6]. Also, in the assay with Human alphaherpesvirus 1 [7], the Activity came to 2.5.

As for `CC(C)=CCOC(=O)/C=C/c1ccc(O)c(O)c1` (stereo in doubt; form 2) [PRENYL CAFFEATE], the Activity is reported as 2.8 in the assay on Human alphaherpesvirus 1 [1]; 3.25 in the assay on Human alphaherpesvirus 1 [2]; 1.25 with Human alphaherpesvirus 1 [3]; 2.5 in the assay with Human alphaherpesvirus 1 [4]; 0.6 in the assay with Human alphaherpesvirus 1 [9]; 3.6 in the assay on Human alphaherpesvirus 1 [5]. Moreover, the Activity with Human alphaherpesvirus 1 [6] amounted to 1.75; with Human alphaherpesvirus 1 [7] it was 2.8. Moreover, the “fold change (FC)” value worked out at 8 with Human alphaherpesvirus 1 [8] and 32 in the assay with Human alphaherpesvirus 1 [10].

On to `Nc1nc2c(ncn2COCCO)c(=O)[nH]1` [ACYCLOVIR], for which the Activity with Human alphaherpesvirus 1 [2] worked out at 3; in the assay with Human alphaherpesvirus 1 [3], 3; in the assay with Human alphaherpesvirus 1 [9] it was 2; in the assay on Human alphaherpesvirus 1 [5] it was 3.25.
